Assay results taken from US12077503B2, “Substituted cyclic amides and their use as herbicides” (FMC CORPORATION, priority 2015, dated 2024).

| SMILES | melting point [°C] |
| --- | --- |
| CN1C[C@H](c2ccc(C(F)(F)F)cc2)[C@@H](C(=O)Nc2ccccc2Br)C1=O [Compound 943] | 104 to 107 |
| CSc1ccccc1NC(=O)[C@H]1C(=O)NC[C@@H]1c1ccc(C(F)(F)F)cn1 [Compound 1050] | 66 to 70 |
| CN1C[C@H](c2ccc(C(F)(F)F)cn2)[C@@H](C(=O)Nc2cccc(F)c2F)C1=O [Compound 1052] | 120 to 124 |
